In publication PMC7874389 (Nature, 2020):

Experiments:
[1] = system: C57BL/6J mice; experiment: Head-twitch response; settings: i.p., 5-MeO-DMT 10 mg/kg, IBG and TBG fumarate salts 10 and 50 mg/kg
[2] = system: C57BL/6J mice; settings: cited from earlier work
[3] = system: rodents trained to discriminate DOM from saline; settings: cited from earlier work
[4] = system: mouse primary sensory cortex; experiment: In vivo spine dynamics, transcranial 2-photon imaging; settings: 24 h after treatment; DOI 10 mg/kg, TBG 50 mg/kg i.p.
[5] = system: C57/BL6J mice; experiment: Forced swim test in the absence of UMS; type: in vivo, mouse
[6] = system: larval zebrafish expressing GCaMP5; experiment: Larval zebrafish seizure experiments; type: in vivo; settings: IBO and TBG 50 μM, PTZ 15 mM, 1 h
[7] = system: larval zebrafish; experiment: Larval zebrafish behavioral profiling; type: in vivo; settings: 1–200 μM, 7 dpf, battery of light and acoustic stimuli

Compound: COc1ccc2[nH]cc(CCN(C)C)c2c1 [5-MeO-DMT, 5-methoxy-N,N-dimethyltryptamine]
- head-twitch response (hallucinogenic potential) [1]: produces a robust HTR

Compound: COc1ccc2c(CCN(C)C)c[nH]c2c1 [6-MeO-DMT]
- head-twitch response [2]: does not produce a head-twitch response
- substitution for DOM [3]: did not substitute for the hallucinogen 2,5-dimethoxy-4-methylamphetamine (DOM) at any dose

Compound: COc1cc(CC(C)N)c(OC)cc1I (centres unmarked) [DOI, 2,5-dimethoxy-4-iodoamphetamine]
- spine elimination [4]: without impacting spine elimination
- spine formation [4]: increased spine formation

Compound: CNC1(c2ccccc2Cl)CCCCC1=O (centres unmarked) [KET, ketamine]
- FST immobility ([5]; 24 h following administration, TBG 50 mg/kg, ketamine 3 mg/kg i.p.): significantly reduced immobility
- durability of FST effect ([5]; 7 d post drug administration): appeared to be more durable

Compound: C1CCc2nnnn2CC1 [PTZ, pentylenetetrazole]
- seizurogenic potential (neural activity, GCaMP5 fluorescence) [6]: excessive neural activity
- behavioral profile versus vehicle and lethal (eugenol) controls [7]: produce behavioral phenotypes more closely resembling a lethal phenotype

Compound: O=S1OCC2C(CO1)C1(Cl)C(Cl)=C(Cl)C2(Cl)C1(Cl)Cl (centres unmarked) [endosulfan]
- behavioral profile versus vehicle and lethal (eugenol) controls [7]: produce behavioral phenotypes more closely resembling a lethal phenotype

Compound: O=C(CCCN1CCC(O)(c2ccc(Cl)cc2)CC1)c1ccc(F)cc1 [haloperidol]
- behavioral profile versus vehicle and lethal (eugenol) controls [7]: more closely resembling the lethal control

Compound: O=C1NCCN1CCN1CCC(c2cn(-c3ccc(F)cc3)c3ccc(Cl)cc23)CC1 [sertindole]
- behavioral profile versus vehicle and lethal (eugenol) controls [7]: more closely resembling the lethal control

Compound: CC(C)(C)c1ccc(C(O)CCCN2CCC(C(O)(c3ccccc3)c3ccccc3)CC2)cc1 (centres unmarked) [terfenadine]
- behavioral profile versus vehicle and lethal (eugenol) controls [7]: more closely resembling the lethal control

Compound: picrotoxin
- behavioral profile versus vehicle and lethal (eugenol) controls [7]: produce behavioral phenotypes more closely resembling a lethal phenotype
